In patent US5220001A, “Anthracycline glycoside derivatives” (Zaidan Hojim Biseibutsu Dong-A Pharm Co., priority 1989, dated 1993):
Counter-ions that a name gives are not always drawn. Like-named read-outs stand apart in the source and are kept apart here.

Key:
L1210 murine leukemia = assay: In vivo antitumor activity on DCF1 mice bearing L1210 murine leukemia; conditions: for T/C (%): i.p. days 1, 5, 9, mean survival time vs control, 60-day observation
Description: The in vivo antitumor activity of the compounds of present invention was studied on DCF1 mice bearing L1210 murine leukemia. Healthy female DCF1 mice were inoculated by intraperitoneal injection with 1×10^5 L1210 leukemia cells per animal. The inoculated mice were then treated intraperitoneally on the days 1, 5, 9 beginning on day 1, 24 hours after inoculation of the leukemia cells with various doses of test compounds. Doxorubicin hydrochloride was administered for comparison. All test compounds and doxorubicin hydrochloride were dissolved in filtered (0.22 μm) distilled water. […] The results are shown in Table 1 where T/C(%) values are determined by dividing the mean survival time of the treated mice by that of the control mice, the quotient so obtained being multiplied by 100. The survival time of the mice which survived more than 60 days after tumor inoculation was scored as 60 days. An increase on the T/C(%) indicates an increase in the antitumor activity of the compound.

[1] = test system: L1210 murine leukemia cells; assay: In vitro growth inhibition activity on L1210 murine leukemia cells (tetrazolium-based MTT colorimetric assay); type: cell-based; conditions: Mus musculus
Description: In vitro growth inhibition activity of the compounds of present invention on L1210 murine leukemia cells was assessed by tetrazolium-based colorimetric assay described in Cancer Research Vol. 47, pp. 936-942, February 1987 with some modifications.
L1210 murine leukemia cells in exponential phase were plated at the density of 1×10^5 cells per well in 96-well microliter plates. The cell culture medium was RPMI 1640 (Roswell Park Memorial Institutes 1640) medium supplemented with 10% heat inactivated fetal bovine serum (FBS), 2mM L-glutamine, penicillin G sodium (100 units per ml of medium), and steptomycin sulfate (1 mg per ml of medium). The anthracycline compounds of present invention and doxorubicin hydrochloride were added to give final concentrations from 1 ng per ml to 300 ng per ml, while the control contained no drug.
The cells were incubated for 72 hours at 37.C. in an atmosphere of 10% CO2 and 90% air. At the end of drug exposure, 50 μl MTT(3-(4,5-dimethylthiazol-2-yl)-2,5-diphenyltetrazolium bromide) solution (2 mg per ml in phosphate-buffered saline) was added to each well and cultures were incubated at 37° C. for 4 hours in Co2 incubator. The MTT is reduced to water insoluble MTT formazan(1-(4,5-dimethylthiazol-2-yl)-3,5-diphenylformazan) by mitochondrial succinate dehydrogenase only in living cells. At the end of incubation, 200 μl of supernatant was removed and the MTT formazan crystal was dissolved by adding 200 μl dimethylsulfoxide with mixing them.
The plates were then read immediately at 540 nm on a scanning multiwell spectrophotometer (enzyme-linked immunosorbent assay reader; Biotech Instruments Inc., Burlington, VT). The absorbance value corrected against uninoculated blank values. The absorbance values are directly proportional to the cell numbers in living state. The IC 50 defined a 50% reduction of absorbance against untreated control were calculated from dose-response curve and are shown in Table 2.

[2] = L1210 cells, 72 hours, MTT, 50% reduction of absorbance against untreated control, read-out: IC50

Row | Structure (SMILES) | toxicity (decrease in T/C(%) at high dose) (L1210 murine leukemia; 16 mg/kg compared with 8 mg/kg) | T/C (%) (L1210 murine leukemia; dose 0.125 mg/kg) | T/C (%) (L1210 murine leukemia; dose 0.250 mg/kg) | T/C (%) (L1210 murine leukemia; dose 0.500 mg/kg) | T/C (%) (L1210 murine leukemia; dose 1.000 mg/kg) | T/C (%) (L1210 murine leukemia; dose 2.000 mg/kg) | T/C (%) (L1210 murine leukemia; dose 4.000 mg/kg) | T/C (%) (L1210 murine leukemia; dose 8.000 mg/kg) | T/C (%) (L1210 murine leukemia; dose 16.000 mg/kg) | IC50 ([1]; L1210, 72 h) | cure of tumored mice (L1210 murine leukemia; at 32 mg/kg, 16 mg/kg and 8 mg/kg i.p.) | T/C (%) (L1210 murine leukemia; dose 32.000 mg/kg) | IC50 [1, 2]
1 | COc1cccc2c1C(=O)c1c(O)c3c(c(O)c1C2=O)C[C@@](O)(C(=O)CO)C[C@@H]3O[C@H]1C[C@H](N)[C@H](O)[C@H](C)O1 [Doxorubicin hydrochloride, reference compound] | significant decrease in T/C(%) | 141% | 170% | 218% | 242% | 242% | 469% | 303% | 109% | 0.0373 µg/mL |  |  | 
2 | COc1cccc2c1C(=O)c1c(O)c3c(c(O)c1C2=O)CC(O)(C(=O)COC(=O)CN)CC3OC1OC(C)C(O)C(O)C1F [Example 3, 7-0-(2,6-dideoxy-2-fluoro-α-L-talopyranosyl)adriamycinone 14-0-glycinate HCl salt] |  | 186% | 238% | 328% | 230% | 255% | 279% | 727% | 727% |  | cured all tumored mice | 727% | 0.0134 µg/mL
3 | COc1cccc2c1C(=O)c1c(O)c3c(c(O)c1C2=O)CC(O)(C(=O)COC(=O)CCN)CC3OC1OC(C)C(O)C(O)C1F [Example 5, 7-0-(2,6-dideoxy-2-fluoro-α-L-talopyranosyl)adriamycinone 14-0-β-alaninate HCl salt] |  | 140% | 162% | 189% | 248% | 361% | 333% | 500% | 636% |  |  | 542% | 0.0101 µg/mL
4 | COc1cccc2c1C(=O)c1c(O)c3c(c(O)c1C2=O)CC(O)(C(=O)COC(=O)CCCCCN)CC3OC1OC(C)C(O)C(O)C1F [Example 7, 7-0-(2,6-dideoxy-2 fluoro-α-L-talopyranosyl)adriamycinone 14-0-(6-aminohexanoate) HCl salt] |  | 111% | 122% | 168% | 242% | 329% | 348% | 367% | 441% | 0.0745 µg/mL |  | 663% | 
5 | COc1cccc2c1C(=O)c1c(O)c3c(c(O)c1C2=O)CC(O)(C(=O)COC(=O)C(C)N)CC3OC1OC(C)C(O)C(O)C1F [Example 9, 7-0-(2,6-dideoxy-2-fluoro-α-L-talopyranosyl)adriamycinone 14-0-L-alaninate HCl salt] |  | 171% | 190% | 244% | 287% | 356% | 468% | 488% | 660% |  |  | 727% | 0.0143 µg/mL
6 | COc1cccc2c1C(=O)c1c(O)c3c(c(O)c1C2=O)CC(O)(C(=O)COC(=O)C(N)C(C)C)CC3OC1OC(C)C(O)C(O)C1F [Example 11, 7-0-(2,6-dideoxy-2-fluoro-α-L-talopyranosyl)adriamycinone 14-0-L-valinate HCl salt] |  | 150% | 168% | 226% | 298% | 492% | 559% | 586% | 727% |  |  | 252% | 0.0155 µg/mL
7 | COc1cccc2c1C(=O)c1c(O)c3c(c(O)c1C2=O)CC(O)(C(=O)COC(=O)C1CCCN1)CC3OC1OC(C)C(O)C(O)C1F [Example 13, 7-0-(2,6-dideoxy-2-fluoro-α-L-talopyranosyl)adriamycinone 14-0-L-prolinate HCl salt] |  | 140% | 159% | 213% | 313% | 367% | 283% | 427% | 635% |  |  | 525% | 0.0163 µg/mL
